# Laboratory results as given in patent publication US5149365A, “Diorganotin compounds, and agents which have a bactericidal and fungicidal action and contain these compounds” (Schering Aktiengesellschaft, priority 1988, dated 1992).
# Key:
# Poria monticola = assay: Filter disk test, Poria monticola; type: cell-based; conditions: 3 weeks, +30° C.
# Protocol: (§1) The inhibition action against fungi, of the products according to the invention, was tested using the "filter disk test" (cf. Table 2). For this purpose, paper filter disks (.phi. 5.5 cm) were soaked in ethanolic solutions containing various amounts of active substance. After the filters had dried under room conditions, they were placed on Petri dishes containing plate-count agar which had been inoculated with a spore suspension. The nutrient medium used was biomalt agar 8° Bg, and the dishes were incubated for 3 weeks at +30° C. Thereafter, the sizes of the inhibition zones (distance of the fungal growth from the edge of the filter, in mm) around the samples were determined.
# Proteus vulgaris = assay: Agar diffusion test, Proteus vulgaris; type: cell-based; conditions: 0: no inhibition action
# Protocol: (§2) DST agar was inoculated with 1 drop of a Muller-Hinton broth of the test organisms, diluted 1 : 10. After a prediffusion period of 2 hours at 22° C., the paper filters which had been soaked with solutions of active substance of various concentrations were placed on the agar. The inhibition zones (distance of the cloudy area from the edge of the paper filter in mm) were determined after an incubation time of 24 hours.
# [1] = Weight loss (release) on storage, 6 days at 65° C.; type: physicochemical
# Protocol: As shown by the comparison above, the amount released into the environment during a storage period of 6 days at 65° C. of, for example, TBT-HDO, is nearly six times higher than in the case of DBT-HDO according to the invention.
# rats = assay: LD50 oral (rats); type: in vivo
# Bacillus subtilis = assay: Agar diffusion test, Bacillus subtilis; type: cell-based; conditions: 0: no inhibition action
# Protocol: as §2
# Paecilomyces varioti = assay: Filter disk test, Paecilomyces varioti; type: cell-based; conditions: 3 weeks, +30° C.
# Protocol: as §1
# Escherichia coli = assay: Agar diffusion test, Escherichia coli; type: cell-based; conditions: 0: no inhibition action
# Protocol: as §2
# Daphnia = assay: EC50 in Daphnia (DIN 38412, Part 12); type: in vivo
# From the text: **Determination in accordance with DIN 38412, Part 12.
# Orfes = assay: EC50 in Orfes (DIN 38412, Part 15); type: in vivo
# From the text: *Determination in accordance with DIN 38412, Part 15
# Staphilococcus aureaus = assay: Agar diffusion test, Staphilococcus aureaus; type: cell-based; conditions: 0: no inhibition action
# Protocol: as §2
# bacteria and fungi = conditions: prior art; cited from earlier work
# Cladosporum herbarum = assay: Filter disk test, Cladosporum herbarum; type: cell-based; conditions: 3 weeks, +30° C.
# Protocol: as §1
# Lentinus lepideus = assay: Filter disk test, Lentinus lepideus; type: cell-based; conditions: 3 weeks, +30° C.
# Protocol: as §1
# [2] = 0.1% active substance in soaking solution
# [3] = 0.3% active substance in soaking solution
# [4] = 0.5% active substance in soaking solution
smiles,measurement,setting,value
CCC[CH2][Sn]([CH2]CCC)([CH2]CCC)[O]N(N=O)C1CCCCC1 [TBT-HDO],inhibition zone (IZ),Poria monticola; 0.5% content of the solution,7-9 mm
same,inhibition zone (IZ),Poria monticola; 1% content of the solution,15 mm
same,inhibition zone (IZ),Poria monticola; 2% content of the solution,15 mm
same,inhibition zone,Proteus vulgaris; [2],6 mm
same,inhibition zone,Proteus vulgaris; [3],7 mm
same,inhibition zone,Proteus vulgaris; [4],7 mm
same,Weight loss,[1]; 6 days 65° C.,12.8%
same,"amount released into the environment, times higher than DBT-HDO","[1]; storage 6 days at 65° C., TBT-HDO vs DBT-HDO",six
same,LD50 oral (rats),rats,63 mg/kg of body wt.
same,inhibition zone,Bacillus subtilis; [2],17 mm
same,inhibition zone,Bacillus subtilis; [3],22 mm
same,inhibition zone,Bacillus subtilis; [4],18 mm
same,inhibition zone (IZ),Paecilomyces varioti; 0.5% content of the solution,10-12 mm
same,inhibition zone (IZ),Paecilomyces varioti; 1% content of the solution,> 15 mm
same,inhibition zone (IZ),Paecilomyces varioti; 2% content of the solution,> 15 mm
same,inhibition zone,Escherichia coli; [2],0 mm
same,inhibition zone,Escherichia coli; [3],0 mm
same,inhibition zone,Escherichia coli; [4],0 mm
same,EC50 in Daphnia,Daphnia,0.020 mg/l of water
same,EC50 in Orfes,Orfes,0.035 mg/l of water
same,inhibition zone,Staphilococcus aureaus; [2],28 mm
same,inhibition zone,Staphilococcus aureaus; [3],32 mm
same,inhibition zone,Staphilococcus aureaus; [4],24 mm
same,biocidal activity,bacteria and fungi,very good biocidal activity
same,inhibition zone (IZ),Cladosporum herbarum; 0.5% content of the solution,10-12 mm
same,inhibition zone (IZ),Cladosporum herbarum; 1% content of the solution,> 15 mm
same,inhibition zone (IZ),Cladosporum herbarum; 2% content of the solution,> 15 mm
same,inhibition zone (IZ),Lentinus lepideus; 0.5% content of the solution,> 15 mm
same,inhibition zone (IZ),Lentinus lepideus; 1% content of the solution,> 15 mm
same,inhibition zone (IZ),Lentinus lepideus; 2% content of the solution,> 15 mm
